In ChEMBL document CHEMBL1132736, “Identification of optimal anion spacing for anti-HIV activity in a series of cosalane tetracarboxylates” (Bioorg Med Chem Lett, 2000):

Columns and labels:
Conditions in all cases: Homo sapiens
CEM-SS [1] = assay: Effective concentration of compound required to reduce the cytopathic effect of HIV-1RF in CEM-SS cells by 50%; assay type: functional, cell-based
CEM-SS [2] = assay: Concentration of compound required to reduce the cellular viability in uninfected CEM-SS cells by 50%; assay type: functional
MT4 [3] = assay: Concentration of compound required to reduce the cellular viability in uninfected MT-4 cells by 50%; assay type: functional
MT4 [4] = assay: Effective concentration of compound required to reduce the cytopathic effect of HIV-2ROD in MT-4 cells by 50%; assay type: functional, cell-based
MT4 [5] = assay: Effective concentration of compound required to reduce the cytopathic effect of HIV-1 IIIB in MT-4 cells by 50%; assay type: functional, cell-based

| Compound | EC50 (CEM-SS [1]) | CC50 (CEM-SS [2]) | CC50 (MT4 [3]) | EC50 (MT4 [4]) | EC50 (MT4 [5]) |
| --- | --- | --- | --- | --- | --- |
| CC(C)CCCC(C)[C@H]1CC[C@H]2[C@@H]3CCC4C[C@@H](CCC=C(c5cc(Cl)c(OCc6ccc(CC(=O)O)cc6)c(C(=O)O)c5)c5cc(Cl)c(OCc6ccc(CC(=O)O)cc6)c(C(=O)O)c5)CC[C@]4(C)[C@H]3CC[C@]12C (stereo not given in full) | 1.78 µM | 133 µM | > 125 µM | 124 µM | 4.4 µM |
| CC(C)CCCC(C)[C@H]1CC[C@H]2[C@@H]3CCC4C[C@@H](CCC=C(c5cc(Cl)c(OCc6ccc(-c7cccc(C(=O)O)c7)cc6)c(C(=O)O)c5)c5cc(Cl)c(OCc6ccc(-c7cccc(C(=O)O)c7)cc6)c(C(=O)O)c5)CC[C@]4(C)[C@H]3CC[C@]12C (stereo not given in full) | 6.11 µM | > 200 µM | 95 µM | > 95 µM | 14.5 µM |
| CC(C)CCCC(C)[C@H]1CC[C@H]2[C@@H]3CCC4C[C@@H](CCC=C(c5cc(Cl)c(O)c(C(=O)O)c5)c5cc(Cl)c(O)c(C(=O)O)c5)CC[C@]4(C)[C@H]3CC[C@]12C (stereo not given in full) | – | > 200 µM | > 200 µM | – | – |
| CC(C)CCCC(C)[C@H]1CC[C@H]2[C@@H]3CCC4C[C@@H](CCC=C(c5cc(Cl)c(OCc6ccc(C(=O)O)cc6)c(C(=O)O)c5)c5cc(Cl)c(OCc6ccc(C(=O)O)cc6)c(C(=O)O)c5)CC[C@]4(C)[C@H]3CC[C@]12C (stereo not given in full) | – | 72 µM | 88 µM | 22 µM | – |
| CC(C)CCCC(C)[C@H]1CC[C@H]2[C@@H]3CCC4C[C@@H](CCC=C(c5cc(Cl)c(OCc6cccc(C(=O)O)c6)c(C(=O)O)c5)c5cc(Cl)c(OCc6cccc(C(=O)O)c6)c(C(=O)O)c5)CC[C@]4(C)[C@H]3CC[C@]12C (stereo not given in full) | – | > 316 µM | 29 µM | – | – |
| CC(C)CCCC(C)[C@H]1CC[C@H]2[C@@H]3CCC4C[C@@H](CCC=C(c5cc(Cl)c(OCc6ccccc6C(=O)O)c(C(=O)O)c5)c5cc(Cl)c(OCc6ccccc6C(=O)O)c(C(=O)O)c5)CC[C@]4(C)[C@H]3CC[C@]12C (stereo not given in full) | 39.8 µM | > 316 µM | 37 µM | – | – |
| CC(C)CCCC(C)[C@H]1CC[C@H]2[C@@H]3CCC4C[C@@H](CCC=C(c5cc(Cl)c(OCc6ccc(-c7ccc(C(=O)O)cc7)cc6)c(C(=O)O)c5)c5cc(Cl)c(OCc6ccc(-c7ccc(C(=O)O)cc7)cc6)c(C(=O)O)c5)CC[C@]4(C)[C@H]3CC[C@]12C (stereo not given in full) | > 100 µM | > 100 µM | 80 µM | > 80 µM | > 80 µM |
| CC(C)CCCC(C)[C@H]1CC[C@H]2[C@@H]3CCC4C[C@@H](CCC=C(c5cc(Cl)c(OCc6ccc(-c7ccccc7C(=O)O)cc6)c(C(=O)O)c5)c5cc(Cl)c(OCc6ccc(-c7ccccc7C(=O)O)cc6)c(C(=O)O)c5)CC[C@]4(C)[C@H]3CC[C@]12C (stereo not given in full) | 5.17 µM | > 200 µM | > 125 µM | > 125 µM | 12.1 µM |
